Results on 2 molecules are retold here after patent US7410971B2, “1,2-di(cyclic)substituted benzene compounds” (Eisai R&D Management Co., Ltd., priority 2003, dated 2008).

The term IC50 denotes the concentration needed to halve the response being measured. Lower therefore signals higher potency.

One assay relates to DSS-induced colitis. The experiment in a line: DSS-induced colitis model. It counts as in vivo, Balb/c mice. The conditions noted are these: 30 mg/kg orally once a day for 5-7 successive days; 1-3% DSS in water for 5-7 days. The source says:
Evaluation of Compounds in DSS-Induced Colitis Model
A 1-3% solution of dextran sulfate sodium (hereinafter abbreviated as DSS; ICN) in purified water (Otsuka Pharmaceutical) was fed freely to 6- to 7-week-old male Balb/c mice (Charles River Japan) for 5-7 days to induce colitis. Disease Activity Index (hereinafter abbreviated as DAI) scored based on fecal hardness, blood content in feces and body weight change, the number of neutrophils infiltrating the colon and the length of the colon were used as indexes to evaluate compounds. Each compound was suspended or dissolved in an aqueous solution containing 0.5% methyl cellulose (Wako), and orally administered at 30 mg/kg once a day, for 5-7 successive days.

Another assay has as its system Jurkat cells. Kind of assay: Jurkat cell adhesion system (adhesion to immobilized human fibronectin, PMA-stimulated). It counts as cell-based. Particulars: concentration inhibiting by 50% the PMA-stimulated increase in number of adhered Jurkat cells on human fibronectin. The protocol: Evaluation of Compounds in Jurkat Cell Adhesion System
<Immobilization of Human Fibronectin in 96-Well Plate>
Human fibronectin (Becton Dickinson Biosciences) was diluted with phosphate-buffered saline (hereinafter abbreviated as PBS; Sigma) to 0.1-0.01 μg/ml, and the diluted solution was added to a 96-well plate (Becton Dickinson) at 50μ/well, and allowed to stand overnight at 4° C. On the following day, the supernatant was removed from the plate, and then PBS containing 1% bovine serum albumin (hereinafter abbreviated as BSA; Sigma) was added thereto at 100 μl/well and incubation was performed at 37° C. for 2 hours in a CO2 incubator (Hirasawa).
The supernatant was removed from each plate and Jurkat cells suspended in RPMI-1640 (Sigma) containing 1 mg/ml BSA were added at 80 μl/well for 2.5×10^5 cells/well. The compound diluted to different concentrations with RPMI-1640 containing 1 mg/ml BSA was immediately added at 10 μl/well, and then 100 nM phorbol myristate acetate (hereinafter abbreviated as PMA; Sigma) in RPMI-1640 containing 1 mg/ml BSA was added at 10 μl/well and the plate was incubated in a CO2 incubator at 37° C. for 45-60 minutes. The supernatant was removed from the plate and each well was washed several times with 100 μl/well of RPMI-1640, after which 50 mM citrate buffer (pH 5.0) containing 3.75 mM p-nitrophenol-N-acetyl-β-D-glucosaminide (Sigma) and 0.25% Triton X-100 (Sigma) were added at 60 μl/well, and the mixture was placed in a CO2 incubator and incubated at 37° C. for 45 minutes. After incubation, 50 mM glycine buffer (pH 10.4) containing 5 mM EDTA was added at 90 μl/well, and the absorbance at 405 nm was measured with an EL340 Automated Microplate Reader (BIO-TEK) to determine the adhered cell count. The concentration of each compound which inhibited the increase in the number of adhered cells by the PMA-stimulation by 50% was recorded as the IC50 (μM).

The structures appear in SMILES notation.

With `CCCCN1CCN(c2cc(C#N)ccc2[C@H]2CC[C@@H](C(C)(C)C)CC2)CC1.Cl` [Example 12, cis-4-(4-t-Butylcyclohexyl)-3-(4-butylpiperazine-1-yl)benzonitrile hydrochloride], in the assay with DSS-induced colitis, the “improvement in comparison with the DSS control group (DAI, number of neutrophils infiltrating the colon, length of the colon)” value was “particularly good improvement”. The molecule further returned a concentration for half-maximal inhibition (IC50) in the assay with Jurkat cells of 3.1 µM.

Regarding `CCCCN1CCN(c2cc(C#N)ccc2[C@H]2CC[C@H](C(C)(C)C)CC2)CC1.Cl` [Example 13, trans-4-(4-t-Butylcyclohexyl)-3-(4-butylpiperazin-1-yl)benzonitrile hydrochloride], the “improvement in comparison with the DSS control group (DAI, number of neutrophils infiltrating the colon, length of the colon)” value in the assay with DSS-induced colitis is on record as “particularly good improvement”. For the same molecule, in the assay with Jurkat cells, the IC50 was determined as 3.9 µM.
